We go through two molecules from ChEMBL document CHEMBL4673381, “Novel Hexahydro-1H-Pyrazino[1,2-a]pyrazine Compounds for Treating Autoimmune Diseases” (ACS Med Chem Lett, 2021).

By IC50 is commonly meant the point on the concentration scale where inhibition reaches its midpoint.

In this assay the target is T1, Toll-like receptor 9 (Homo sapiens, UniProt Q9NR96).
T1 sequence (Q9NR96 whole entry): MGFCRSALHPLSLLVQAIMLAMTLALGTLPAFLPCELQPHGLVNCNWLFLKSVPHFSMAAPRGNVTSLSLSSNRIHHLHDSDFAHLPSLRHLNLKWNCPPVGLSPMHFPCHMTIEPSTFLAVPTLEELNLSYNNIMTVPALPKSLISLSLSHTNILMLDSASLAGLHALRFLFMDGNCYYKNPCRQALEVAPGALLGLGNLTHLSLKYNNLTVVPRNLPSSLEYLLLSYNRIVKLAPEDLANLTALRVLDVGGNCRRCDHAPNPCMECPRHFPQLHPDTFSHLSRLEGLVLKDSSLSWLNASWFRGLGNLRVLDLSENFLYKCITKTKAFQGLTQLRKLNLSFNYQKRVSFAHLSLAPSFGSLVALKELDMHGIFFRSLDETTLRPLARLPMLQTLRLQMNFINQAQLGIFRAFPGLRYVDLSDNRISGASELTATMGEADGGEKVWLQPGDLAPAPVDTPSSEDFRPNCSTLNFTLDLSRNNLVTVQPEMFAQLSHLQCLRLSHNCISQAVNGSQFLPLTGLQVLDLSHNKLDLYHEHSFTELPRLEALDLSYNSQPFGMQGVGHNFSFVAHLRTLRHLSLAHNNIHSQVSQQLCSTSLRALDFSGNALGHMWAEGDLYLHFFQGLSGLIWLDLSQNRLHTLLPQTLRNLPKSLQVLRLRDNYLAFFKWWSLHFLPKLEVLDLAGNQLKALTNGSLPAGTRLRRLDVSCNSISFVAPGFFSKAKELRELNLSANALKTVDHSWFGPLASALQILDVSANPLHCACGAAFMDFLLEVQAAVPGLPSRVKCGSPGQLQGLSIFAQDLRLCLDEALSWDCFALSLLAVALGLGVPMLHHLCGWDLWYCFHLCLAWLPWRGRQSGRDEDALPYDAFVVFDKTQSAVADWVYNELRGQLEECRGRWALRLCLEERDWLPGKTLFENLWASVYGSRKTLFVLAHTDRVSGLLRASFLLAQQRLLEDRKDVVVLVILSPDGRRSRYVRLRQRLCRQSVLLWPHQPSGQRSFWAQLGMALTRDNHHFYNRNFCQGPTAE
Put plainly: Inhibition of human TLR9 expressed in HEK-Blue cells assessed as inhibition of ODN2006-induced NF-kappaB and AP-1 activation measured after 20 hrs by quanti-blue based SEAP reporter gene assay. The format is cell-based, HEK-Blue hTLR9.

Consider `C[C@@H]1CN(c2ccc(C#N)c3ncccc23)C[C@@H]2CN(c3cccc4c3CCNC4)CCN21`, for which the IC50 is 54 nM.
The same measure for `[2H]c1ccc2c(N3CC4CN(c5ncc(N6CCOC[C@H](N)C6)cc5C)CCN4[C@@H](C)C3)ccc(C#N)c2n1` (some centres not stated): 70 nM.
